Activity calls are given as the source filed them.
What was measured:
[1] = target: T1, Heat shock factor protein 1 (Mus musculus, UniProt P38532); assay: enhancement of HSF1-driven luciferase signal – cell-based, NIH3T3, luminescence, dose retest, confirmation (AID 435004); assay type: functional;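 also: stress induced by proteasome inhibitor MG132 added 30 min after compound; luciferase reporter driven by HSF1 response element in NIH3T3 cells; actives raise luminescence as potentiators of the MG132 stress response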
T1 sequence (P38532 whole entry): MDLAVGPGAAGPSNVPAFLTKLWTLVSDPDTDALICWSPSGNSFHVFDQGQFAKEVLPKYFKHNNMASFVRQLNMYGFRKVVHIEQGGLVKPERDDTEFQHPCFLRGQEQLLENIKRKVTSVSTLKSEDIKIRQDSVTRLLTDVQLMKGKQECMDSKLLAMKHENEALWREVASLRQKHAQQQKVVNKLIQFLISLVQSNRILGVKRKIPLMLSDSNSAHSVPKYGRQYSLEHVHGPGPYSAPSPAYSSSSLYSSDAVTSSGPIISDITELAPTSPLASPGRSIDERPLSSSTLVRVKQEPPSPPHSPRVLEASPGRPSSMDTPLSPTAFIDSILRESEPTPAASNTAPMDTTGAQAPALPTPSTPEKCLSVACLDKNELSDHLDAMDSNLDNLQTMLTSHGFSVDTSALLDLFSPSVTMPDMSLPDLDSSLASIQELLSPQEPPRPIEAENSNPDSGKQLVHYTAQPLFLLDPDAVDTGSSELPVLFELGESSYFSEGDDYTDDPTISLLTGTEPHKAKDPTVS

BJ = assay: cells; assay type: functional, cell-based; settings: Homo sapiens
[2] = target: T2, Mitochondrial peptide methionine sulfoxide reductase (Bos taurus, UniProt P54149); assay type: functional;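 also: absorbance read-out, biochemical high-throughput dose-response screen for MsrA inhibitors, confirmatory; recombinant bovine MsrA coupled to E. coli TrxB with NADPH and selenocystamine; potency is for inhibitors of MsrA activity on DMSO substrate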
T2 sequence (P54149 whole entry): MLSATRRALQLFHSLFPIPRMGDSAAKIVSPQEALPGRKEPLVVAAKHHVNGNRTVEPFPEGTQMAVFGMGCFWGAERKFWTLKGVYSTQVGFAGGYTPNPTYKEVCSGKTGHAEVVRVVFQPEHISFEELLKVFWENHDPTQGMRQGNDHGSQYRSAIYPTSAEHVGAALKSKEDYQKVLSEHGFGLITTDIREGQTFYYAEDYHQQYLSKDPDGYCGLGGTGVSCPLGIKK

[3] = HIV-1 AD8 envelope cell-cell fusion blockers – cherry-pick, dose response (AID 652062); assay type: functional, cell-based;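 also: luciferase signal from cell-cell fusion driven by HIV-1 clade B AD8 Env; potency is for inhibitors of fusion seen as a drop in luminescence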
Protein RecA = target: T3, Protein RecA (Mycobacterium tuberculosis, UniProt P9WHJ3); assay: Fluorescence Cell-Free Homogeneous Dose Retest to Identify Inhibitors of RecA-Intein Splicing Activity. [Related pubchem assays (depositor defined):AID2097, AID2223, AID489010, AID492950]; assay type: functional
T3 sequence (P9WHJ3 whole entry): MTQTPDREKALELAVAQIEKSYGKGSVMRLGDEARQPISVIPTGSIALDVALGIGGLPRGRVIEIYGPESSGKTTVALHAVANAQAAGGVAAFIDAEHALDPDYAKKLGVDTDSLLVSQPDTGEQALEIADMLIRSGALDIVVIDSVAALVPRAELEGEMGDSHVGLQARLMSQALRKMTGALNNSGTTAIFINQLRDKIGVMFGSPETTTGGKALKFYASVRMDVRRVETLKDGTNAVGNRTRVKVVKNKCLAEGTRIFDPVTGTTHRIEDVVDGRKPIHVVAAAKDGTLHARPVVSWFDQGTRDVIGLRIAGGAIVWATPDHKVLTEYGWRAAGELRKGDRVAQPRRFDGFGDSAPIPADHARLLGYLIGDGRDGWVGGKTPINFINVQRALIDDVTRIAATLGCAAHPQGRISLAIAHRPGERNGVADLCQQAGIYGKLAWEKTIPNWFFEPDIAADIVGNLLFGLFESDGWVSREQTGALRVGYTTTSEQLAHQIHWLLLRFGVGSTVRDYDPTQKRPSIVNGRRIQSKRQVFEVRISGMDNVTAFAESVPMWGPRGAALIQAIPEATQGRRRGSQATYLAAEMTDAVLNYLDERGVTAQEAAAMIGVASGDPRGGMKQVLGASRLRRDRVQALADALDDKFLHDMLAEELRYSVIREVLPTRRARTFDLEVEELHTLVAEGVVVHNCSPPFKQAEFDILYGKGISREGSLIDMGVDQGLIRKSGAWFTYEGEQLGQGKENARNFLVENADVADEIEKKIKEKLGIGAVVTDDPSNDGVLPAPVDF

[4] = blockers of HIV-1 ZM109 envelope-driven cell-cell fusion – HeLa effector, CEM target cells, luciferase, cherry-pick, dose response (AID 652058); assay type: functional, cell-based;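 also: luciferase signal from HIV-1 Env mediated cell-cell fusion of effector and target cells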
Vero = assay: cells; assay type: functional; settings: Chlorocebus sabaeus
[5] = target: T4, Serine/threonine-protein phosphatase (Candida dubliniensis (strain CD36 / CBS 7987 / NCPF 3949 / NRRLY-17841) (Yeast), UniProt B9W6M3); assay: blockers of CaCl2-induced CDRE-lacZ signaling – S. cerevisiae, luminescence, secondary, dose response (AID 2388); assay type: functional, cell-based;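 also: yeast reporter cells carrying a calcineurin-responsive lacZ construct stimulated with calcium chloride; luminescent beta-galactosidase reporter signal in whole cells rather than isolated phosphatase activity; potency for inhibition where a drop in reporter signal means calcineurin blockade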
T4 sequence (B9W6M3 whole entry): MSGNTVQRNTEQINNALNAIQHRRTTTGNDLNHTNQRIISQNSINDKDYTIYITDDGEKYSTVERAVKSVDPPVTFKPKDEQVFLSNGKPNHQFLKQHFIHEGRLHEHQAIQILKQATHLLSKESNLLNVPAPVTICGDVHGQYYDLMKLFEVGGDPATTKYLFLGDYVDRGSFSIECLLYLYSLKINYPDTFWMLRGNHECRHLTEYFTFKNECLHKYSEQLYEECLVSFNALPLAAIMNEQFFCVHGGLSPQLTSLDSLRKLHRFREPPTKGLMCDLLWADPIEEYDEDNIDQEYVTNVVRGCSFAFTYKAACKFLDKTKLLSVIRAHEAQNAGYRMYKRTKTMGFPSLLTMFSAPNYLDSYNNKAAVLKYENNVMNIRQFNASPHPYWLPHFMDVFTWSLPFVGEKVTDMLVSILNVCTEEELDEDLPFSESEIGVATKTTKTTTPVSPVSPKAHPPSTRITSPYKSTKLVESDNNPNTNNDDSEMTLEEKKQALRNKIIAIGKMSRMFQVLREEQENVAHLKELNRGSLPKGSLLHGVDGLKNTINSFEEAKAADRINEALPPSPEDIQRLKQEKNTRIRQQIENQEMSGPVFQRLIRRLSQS

[6] = reduction of Shn3 3'UTR-driven luciferase in osteoblasts – cell-based, Clone20 osteoblasts, firefly luciferase, cherry-picked, dose response (AID 624132); assay type: functional;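 also: firefly luciferase luminescence from reporter carrying the Shn3 3'UTR in osteoblasts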

**Q.** Which results are given for `COc1cccc(/C=N/Nc2ccc([N+](=O)[O-])cn2)c1O`?
**A.** EC50 [1]: 3.08 µM (active); EC50 (BJ): 9.14 µM (inconclusive)

**Q.** With `CCc1ccc(S(=O)(=O)/N=C2\C=C(Nc3ccc(C(=O)O)cc3)C(=O)c3ccccc32)cc1` as the compound, how does the IC50 [2] read?
**A.** The IC50 was 5 µM (active).

**Q.** And the AC50 [3]?
**A.** The AC50 was 3.52 µM (active).

**Q.** And the EC50 (Protein RecA)?
**A.** The EC50 was 0.124 µM (active).

**Q.** What about the AC50 [4] of the same compound?
**A.** The AC50 was 6.74 µM (active).

**Q.** What does the source list for `Oc1c(C(c2ccccc2Cl)N2CCCC2)ccc2cccnc12` (centres undefined)?
**A.** CC50 (Vero): 17.1 µM (active); EC50 [5]: > 180 µM (inactive); AC50 [6]: 5.77 µM (active)
